Each block holds one molecule with its values, some of them ahead of it.
Columns and labels:
Format in all cases: physicochemical
[1] = Film method: loading capacity of active ingredient in polymer films, microscopic assessment after storage; settings: for Loading capacity, active ingredients in %, Films with Kollicoat ® Smartseal + 6 mol partially neutralized: 6 mol % of basic groups neutralized with adipic acid; for Loading capacity, active ingredients in %, Films with Kollicoat ® Smartseal + 6 mol partially neutralized / Loading capacity, active ingredients in %, Films with Kollicoat ® Smartseal + 8 mol partially neutralized / Loading capacity, active ingredients in %, Films with Eudragit ® EPO / Loading capacity, active ingredients in %, Films with Kollicoat ® Smartseal freeze-dried: no crystals in film, storage 7 days 23° C./54% relative humidity; for Loading capacity, active ingredients in %, Films with Kollicoat ® Smartseal + 8 mol partially neutralized: 8 mol % of basic groups neutralized with succinic acid; for Loading capacity, active ingredients in %, Films with Eudragit ® EPO / Loading capacity, active ingredients in %, Films with Kollicoat ® Smartseal freeze-dried: molecularly disperse dissolved active ingredient
Description: The film method is a process in which a clear solution of the polymer and of the active ingredient is molded to give a thin film which solidifies as a result of the solvent evaporating. Clear solution means that no clouding is evident upon normal inspection. This method is suitable in particular as a screening method in order to determine the loading limits of the solid dispersions in a simple manner. For the screening process, the film can be produced by pouring the solution with the corresponding concentrations of polymer and active ingredient onto glass plates and drawing it out with the help of a blade to give the film. Usually, the films are drawn to layer thicknesses of from 50 to 200 μm. The resulting films are then dried by drawing off the solvent, and solidified as a result. In one or more embodiments, the solvent is removed in vacuo, for example at 1 hPa to 100 hPa. […] Additionally, the removal of the solvent can be effected by the action of temperature.
For the screening process, the films produced are then stored under controlled climatic conditions for defined periods of time—generally 14 days.
The films can then be evaluated by microscope at 40 times magnification. Clear films are a sign of amorphous systems. Cloudy films point to relatively large crystalline fractions.
To prepare the polymer/active ingredient mixture, the substances were weighed in the respective amounts into a 50 ml penicillin bottle.
All of the mixtures were stirred for 24 h on a magnetic stirrer until the constituents had dissolved. After visually assessing the solution (clear solution), the solvent was drawn out on a glass plate using a 120 μm blade. The resulting film was dried for 0.5 h at room temperature of 22+/−2° C. in a fume cupboard and then for 0.5 h in a vacuum drying cabinet at 50° C. and […]. […] Clear films (without active ingredient crystals) indicate molecularly disperse solutions and cloudy films (with active ingredient crystals) indicate crystalline systems.

[2] = Spray-drying: loading capacity assessed by DSC; settings: active ingredient in Kollicoat ® Smartseal
Description: (§1) To prepare the polymer/active ingredient mixture, the substances were weighed into an appropriate storage vessel. The corresponding amount of solvent was added and the mixture was stirred until the polymer and the active ingredient had completely dissolved. […] The solids fraction of the spraying solution was 20% by weight for all experiments. The spray-drying was carried out on a laboratory scale.
(§2) The liquid to be dried was atomized using a two-material nozzle. A heated gas (here nitrogen) flowing concurrently dries the distributed drops to give solid particles with particle diameters in the range 5-20 μm. In the entry area of the spray drier, the drying gas is supplied tangentially. The dry product particles are separated off in a cyclone.

[3] = Spray-drying: loading capacity assessed by XRD; settings: active ingredient in Kollicoat ® Smartseal
Description: as §1, §2
Loading capacity of Kollicoat® Smartseal with different active ingredients in the spray-drying. Spray-drying experiments carried out on the laboratory scale: • 1. Itraconazole: Kollicoat® Smartseal with 40+50% (w/w) itraconazole • 2. Fenofibrate: Kollicoat® Smartseal with 40+50% (w/w) fenofibrate • 3.

Structure (SMILES): NC(=O)N1c2ccccc2C=Cc2ccccc21 [Carbamazepine]
Loading capacity, active ingredients in %, Films with Kollicoat ® Smartseal + 6 mol partially neutralized [1]: 30% | Loading capacity, active ingredients in %, Films with Kollicoat ® Smartseal + 8 mol partially neutralized [1]: 30% | Loading capacity, active ingredients in %, Films with Eudragit ® EPO [1]: <10% | Loading capacity, active ingredients in %, Films with Kollicoat ® Smartseal freeze-dried [1]: 20%

Structure (SMILES): Clc1ccccc1C(c1ccccc1)(c1ccccc1)n1ccnc1 [Clotrimazole]
Loading capacity, active ingredients in %, Films with Kollicoat ® Smartseal + 6 mol partially neutralized [1]: 35% | Loading capacity, active ingredients in %, Films with Kollicoat ® Smartseal + 8 mol partially neutralized [1]: 35% | Loading capacity, active ingredients in %, Films with Eudragit ® EPO [1]: 20% | Loading capacity, active ingredients in %, Films with Kollicoat ® Smartseal freeze-dried [1]: 35%

Structure (SMILES): C#C[C@]1(O)CC[C@H]2[C@@H]3CCC4=Cc5oncc5C[C@]4(C)[C@H]3CC[C@@]21C [Danazol]
Loading capacity, active ingredients in %, Films with Kollicoat ® Smartseal + 6 mol partially neutralized [1]: 50% | Loading capacity, active ingredients in %, Films with Kollicoat ® Smartseal + 8 mol partially neutralized [1]: 50% | Loading capacity, active ingredients in %, Films with Eudragit ® EPO [1]: <10% | Loading capacity, active ingredients in %, Films with Kollicoat ® Smartseal freeze-dried [1]: 50%

More lines, now with the values ahead:

Loading capacity, active ingredients in %, Films with Kollicoat ® Smartseal + 6 mol partially neutralized [1]: 30% | Loading capacity, active ingredients in %, Films with Kollicoat ® Smartseal + 8 mol partially neutralized [1]: 30%
Structure (SMILES): CC(C)Cc1ccc(C(C)C(=O)O)cc1 (stereo not drawn) [Ibuprofen 50, Ibuprofen]

Loading film method ([1]; active ingredient in Kollicoat ® Smartseal): 50% | Loading capacity, active ingredients in %, Films with Eudragit ® EPO [1]: 30% | Loading spray-drying [DSC, %] [2]: 50% | Loading spray-drying [XRD, %] [3]: 50%
Structure (SMILES): COc1ccc2cc([C@H](C)C(=O)O)ccc2c1 [Naproxen]

Reference: US10668156B2, “Active-ingredient-containing solid dispersions based on diethylaminoethyl methacrylate copolymers” (BASF SE, priority 2012, dated 2020)
